Literature values, collected in patent US20120021445A1, “Pluripotent Stem Cells for Drug Induced Myopathy and Malignant Hyperthermia” (priority 2010, published 2012).

Experiments:
[1] = rhabdomyolysis defined as acute elevation of CK (>15 000 ULN); unit not given

Structure (SMILES) | reported incidence of rhabdomyolysis [1] | lack of efficacy in malignant hyperthermia patients
CC[C@H](C)C(=O)O[C@H]1C[C@@H](C)C=C2C=C[C@H](C)[C@H](CC[C@@H]3C[C@@H](O)CC(=O)O3)[C@H]21 [lovostatin] | 0.19 | 
CC(C)c1c(C(=O)Nc2ccccc2)c(-c2ccccc2)c(-c2ccc(F)cc2)n1CC[C@@H](O)C[C@@H](O)CC(=O)O [atrovarstatin] | 0.04 | 
O=C1CN(/N=C/c2ccc(-c3ccc([N+](=O)[O-])cc3)o2)C(O)=N1 [dantrolene] |  | up to 5%
CC[C@H](C)C(=O)O[C@H]1C[C@H](O)C=C2C=C[C@H](C)[C@H](CC[C@@H](O)C[C@@H](O)CC(=O)O)[C@H]21 [pravastatin] | 0.04 | 
